Residues, ends and D or L forms follow the SMILES beside them.
Assays:
Guinea pig hearts = assay: Example 14: ischemia-reperfusion-induced myocardial stunning
Protocol: Guinea pig hearts will be rapidly isolated, and the aorta will be cannulated in situ and perfused in a retrograde fashion with an oxygenated Krebs-Henseleit at constant pressure (40 cm H2O). Contractile force will be measured with a small hook inserted into the apex of the left ventricle and a silk ligature connected to a force-displacement transducer. Coronary flow will be measured by timing the collection of pulmonary artery effluent.
Hearts will be perfused with peptide conjugates (1-100 nM); aromatic-cationic peptides (an equivalent molar dose of aromatic-cationic peptide based on the concentration of the aromatic-cationic peptide administered in the peptide conjugate treatment group); SPN10(s) (an equivalent molar dose of SPN10 based on the concentration of SPN10 administered in the peptide conjugate treatment group); or SPN10(s) in combination with aromatic-cationic peptides (e.g., an equivalent molar dose of SPN10 based on the concentration of SPN10 administered in the peptide conjugate treatment group and an equivalent molar dose of aromatic-cationic peptide based on the concentration of aromatic-cationic peptide administered in the peptide conjugate treatment group) for 30 minutes and then subjected to 30 minutes of global ischemia. Reperfusion will […] be performed using perfusion buffer lacking both peptide conjugates and SPN10(s) (with or without aromatic-cationic peptides).

neuronal N2A cells = assay: Example 21: intracellular ROS and cell survival after t-BHP; format: cell-based; settings: t-BHP 0.5 or 1 mM, 40 min; then 4 hours
Protocol: Cells will be washed twice and incubated in medium alone or medium containing varying concentrations of peptide conjugates, aromatic-cationic peptides or SPN10(s) with or without aromatic-cationic peptides for 4 hours. Intracellular ROS will be measured using carboxy-H2DCFDA (Molecular Probes, Portland, OR, U.S.A.). Cell death will be measured using an MTS cell proliferation assay (Promega, Madison, WI).

Sprague-Dawley rats = assay: Example 56: diabetic retinopathy in STZ and HFD/STZ rats; format: in vivo, rat
Protocol: A rat model of diabetes will be established by combination of 6-week HFD and either 1) a low-dose STZ (30 mg/kg) injection, or 2) a single high dose of STZ (65 mg/kg) in Sprague-Dawley rats. See generally, Srinivasan, et al., Pharm. Res. 52(4):313-320 (2005). Controls will be maintained on normal rat chow (NRC). Treatment groups will be as follows: • Group A: 12 HFD/STZ peptide conjugates 10 mg/kg s.c • Group B: 12 HFD/STZ peptide conjugates 3 mg/kg s.c. • Group C: 12 HFD/STZ peptide conjugates 1 mg/kg s.c. • Group D: 10 HFD/STZ control vehicle. s.c. • Group E: 10 NRC control vehicle. s.c. • Group F: 12 HFD/STZ aromatic-cationic peptide (an equivalent molar dose of aromatic-cationic peptide based on concentration of the aromatic-cationic peptide administered in the 10 mg/kg s.c.q.d. peptide conjugate group) • Group G: 12 HFD/STZ aromatic-cationic peptide (an equivalent molar dose of aromatic-cationic peptide based on concentration of the aromatic-cationic peptide administered in the 3 mg/kg s.c.q.d. peptide conjugate group) • Group H: 12 HFD/STZ aromatic-cationic peptide (an equivalent molar dose of aromatic-cationic peptide based on concentration of the aromatic-cationic peptide administered in the 1 mg/kg s.c.q.d. peptide conjugate group) • Group I: 12 HFD/STZ SPN10 (an equivalent molar dose of SPN10 based on concentration of SPN10 administered in the 10 mg/kg s.c.q.d. peptide conjugate group) • Group J: 12 HFD/STZ SPN10 (an equivalent molar dose of SPN10 based on concentration of SPN10 administered in the 3 mg/kg s.c.q.d. peptide conjugate group) • Group K: 12 HFD/STZ SPN10 (an equivalent molar dose of SPN10 based on concentration of SPN10 administered in the 1 mg/kg s.c.q.d. peptide conjugate group). • Group L: SPN10(s) in combination with aromatic-cationic peptides (e.g., an equivalent molar dose of SPN10 based on the concentration of SPN10 administered in the 10 mg/kg s.c.q.d. peptide conjugate treatment group and an equivalent molar dose of aromatic-cationic peptide based on the concentration of aromatic-cationic peptide administered in the 10 mg/kg s.c.q.d. peptide conjugate treatment group) • Group M: SPN10(s) in combination with aromatic-cationic peptides (e.g., an equivalent molar dose of SPN10 based on the concentration of SPN10 administered in the 3 mg/kg s.c.q.d. peptide conjugate treatment group and an equivalent molar dose of aromatic-cationic peptide based on the concentration of aromatic-cationic peptide administered in the 3 mg/kg s.c.q.d. peptide conjugate treatment group) • Group N: SPN10(s) in combination with aromatic-cationic peptides (e.g., an equivalent molar dose of SPN10 based on the concentration of SPN10 administered in the 1 mg/kg s.c.q.d. peptide conjugate treatment group and an equivalent molar dose of aromatic-cationic peptide based on the concentration of aromatic-cationic peptide administered in the 1 mg/kg s.c.q.d. peptide conjugate treatment group)
Eyes will be harvested and subjects assessed for cataract formation, epithelial changes, integrity of the blood-retinal barrier, retinal microvascular structure, and retinal tight junction structure using methods known in the art.

N=C(N)NCCC[C@H](NC(=O)[C@@H](N)Cc1c[nH]c2ccccc12)C(=O)N[C@@H](Cc1c[nH]c2ccccc12)C(=O)N[C@@H](CCCCN)C(N)=O [SPN10, H-L-Trp-L-Arg-L-Trp-L-Lys-NH2] (H-WRWK-NH2)
cardiac stunning (Guinea pig hearts): complete inhibition of cardiac stunning
coronary flow during reperfusion (Guinea pig hearts): well-sustained throughout the reperfusion period
heart rate (Guinea pig hearts): no decrease in heart rate
contractile force during the reperfusion period (Guinea pig hearts; 30 minutes perfusion, 30 minutes global ischemia): improved compared to untreated controls
cell survival (MTS) (neuronal N2A cells): increase cell survival
intracellular ROS (carboxy-H2DCFDA) (neuronal N2A cells): dose-dependently reduce intracellular ROS
non-uniform distribution of tight junctions (claudin-5) along retinal vessels (Sprague-Dawley rats; HFD/STZ subjects): prevent, reverse, or attenuate this effect
retinal microvascular changes (Sprague-Dawley rats; STZ or HFD/STZ rats): reduce retinal microvascular changes
epithelial cellular changes (Sprague-Dawley rats; STZ rat model and HFD/STZ rat model): reduce epithelial cellular changes
inner blood-retinal barrier function (Sprague-Dawley rats; compared to control subjects): improved inner blood-retinal barrier function
cataract formation in the lenses of diabetic rats (Sprague-Dawley rats; rat, in vivo): prevention or reversal of cataract formation

Source: patent US20240108740A1, “THERAPEUTIC COMPOSITIONS INCLUDING SPN10 AND USES THEREOF” (Stealth BioTherapeutics Inc., priority 2022, published 2024)
